Measured values published in patent publication US6407316B1, “Method of increasing foreign protein expression” (priority 1997, dated 2002).

Columns and labels:
Roundup Ready® Cotton [1] = assay: Fruiting of Roundup Ready Cotton, insecticide at planting, Roundup at four-leaf stage; format: in vivo; conditions: for % change from UTC (Squares per Plant) / Squares per Plant / % change from UTC (Squares + Bolls) / Squares + Bolls: Roundup at four-leaf stage; for % change from UTC (Squares per Plant) / Squares per Plant: 45 days after Roundup treatment; for % change from UTC (Squares + Bolls) / Squares + Bolls: after 62 days
Experimental: (§1) A plot of Roundup Ready® Cotton (RRC was grown up. One part of the plot was treated with Temik® at a rate of 5.6 kg/ha of commercial product at the time of planting of the seed. Another part was treated with Disyston® (disulfoton) at 22.24 kg of commercial product/ha the time of planting of the seed. Another part of the plot was grown from seed treated with Gauch® (imidactoprid) at a rate of 0.357 kg of commercial product per 100 kg of seed. One part of the plot was left untreated by an insecticide which is called hereafter the untreated check (UTC).
The isopropylamine salt of glyphosate was applied to all the cotton plants at the four-leaf stage in the form of the commercial product Roundup® at a rate of 32 oz of commercial product per acre (=[…] of active ingredient). The following results were observed 45 days after the Roundup® treatment:
After 62 days, many squares had matured to bolls and the following observations were made: […]

Roundup Ready® Cotton [2] = assay: Fruiting of Roundup Ready Cotton, insecticide at planting, Roundup at six-leaf stage; format: in vivo; conditions: for % change from UTC (Squares per Plant) / Squares per Plant: 40 days after Roundup treatment; for % change from UTC (Square & Bolls) / Square & Bolls: after 57 days
Experimental: as §1
Roundup Ready® Cotton was grown up as in Example 5 and treated with Roundup at the six-leaf stage.
The following results were observed 40 days after the Roundup® treatment:
After 57 days, many of the square had matured to bolls.

NuCotn® 32B = assay: Number of bolls on field-grown NuCotn 32B after side-dress aldicarb; format: in vivo, cotton; conditions: Temik 15G side-dress 7.8 kg/ha commercial product; after a full growing season
From the text: (§2) Seeds of NuCotn® 32B are planted in a field. Aldicarb, in the form of the commercial product Temik® 15G (a 15% weight/weight granular formulation) is applied as a side-dress at 7.8 kg/ha of commercial product. […] The amount of damage due to bollworm attack on the cotton is less in those treated with aldicarb in comparison to those not treated with aldicarb.

bollworm = assay: Bollworm damage on field-grown NuCotn 32B after side-dress aldicarb; format: in vivo; conditions: Temik 15G side-dress 7.8 kg/ha commercial product; after a full growing season
From the text: as §2

Heliothis virescens = assay: Bt cotton tissue incorporated into Heliothis diet, pupation bioassay (EC50P); format: in vivo; conditions: aldicarb at plant, tissue collected after 90 days
Experimental: Cotton leaves and squares were collected from treatments of Bt Cotton wherein the cotton was treated with Temik® 15G under the following conditions;
A) 0.45 lbs active ingredient per acre at plant (0.5 kg/ha)
B) […] active ingredient per acre at plant; […] and
C) 0.75 lbs active ingredient per acre (0.84 kg/ha) at plant and followed 3 weeks later by a side-dress treatment of 1.0 lbs per acre (1.12 kg/ha) of active ingredient.
One planting was not treated with aldicarb.
After 90 days leaves and squares were collected, washed with soap and water, allowed to dry, washed with acetone, allowed to dry and finally washed with chloroform. The tissues were then freeze dried, ground in a mortar and pestle and stored at room temperature.
The cotton tissues were incorporated into a Heliothis diet and fed to Heliothis virescens. The larvae in the cups were weighed at seven days after infestation and the number of pupae were counted 14 and 21 days after infestation. The percent pupation was calculated at the different concentrations and the EC50P (the amount of tissue per liter of diet that reduced pupation by 50%) was calculated for each insecticide treatment to express the amount of toxin activity in the treatment.

delta-endotoxin = assay: Delta-endotoxin level in tissues of field-grown NuCotn 32B after in-furrow aldicarb; format: in vivo, cotton (NuCotn® 32B); conditions: Temik 15G in furrow, about 0.5 kg/ha active ingredient; various points in the growing season
Experimental: Seeds of NuCotn® 32B are planted in a field. Aldicarb, in the form of the commercial product Temik® 15G (a 15% weight/weight granular formulation) is applied in the furrow that comprises the seed at a rate of about 0.5 kg/ha of active ingredient or 3.3 kg/ha of commercial product. At various points in the growing season, the plant tissues are tested for the levels of the delta-endotoxin.

| Compound | % change from UTC (Squares per Plant) (Roundup Ready® Cotton [1]) | Squares per Plant (Roundup Ready® Cotton [1]) | % change from UTC (Squares + Bolls) (Roundup Ready® Cotton [1]) | Squares + Bolls (Roundup Ready® Cotton [1]) | % change from UTC (Squares per Plant) (Roundup Ready® Cotton [2]) | Squares per Plant (Roundup Ready® Cotton [2]) | % change from UTC (Square & Bolls) (Roundup Ready® Cotton [2]) | Square & Bolls (Roundup Ready® Cotton [2]) | number of bolls on the plants vs not treated (NuCotn® 32B) | amount of damage due to bollworm attack vs not treated (bollworm) | yield of cotton compared with UTC or cotton treated with other pesticides (Roundup Ready® Cotton [1]; herbicide at the four-leaf stage, summary of Example 5) | amount of tissue to reduce pupation by 50% (EC50P) vs untreated check (Heliothis virescens; leaf tissue, reading three weeks after infestation) | amount of tissue to reduce pupation by 50% (EC50P) vs untreated check (Heliothis virescens; leaf tissue, reading two weeks after infestation) | amount of tissue to reduce pupation by 50% (EC50P) vs untreated check (Heliothis virescens; square tissue, reading three weeks after infestation) | amount of tissue to reduce pupation by 50% (EC50P) vs untreated check (Heliothis virescens; square tissue, reading two weeks after infestation) | level of the delta-endotoxin in plant tissues vs plants not treated (delta-endotoxin) |
| --- | --- | --- | --- | --- | --- | --- | --- | --- | --- | --- | --- | --- | --- | --- | --- | --- |
| CCOP(=S)(OCC)SCCSCC [disulfoton] | +2% | 7.65 | −15.0% | 12.8 | −36% | 5.65 | +14% | 16.5 |  |  |  |  |  |  |  |  |
| CNC(=O)ON=CC(C)(C)SC [aldicarb, 2-methyl-2-(methylthio)propionaldehyde O-(methylcarbamoyl)oxime] | +21% | 9.05 | +18.7% | 18.7 | +23% | 10.95 | +11% | 16.0 | larger number of bolls | less | increases the yield of cotton | higher amounts of tissue | higher amounts of tissue | lesser amounts of tissue | lesser amounts of tissue | higher level of the endotoxin |
| O=[N+]([O-])N=C1NCCN1Cc1ccc(Cl)nc1 [imidacloprid, 1-(6-chloro-3-pyridylmethyl)-N-nitroimidazolidin-2-ylideneamine] | +18% | 8.70 | −0.2% | 14.8 | −14% | 7.60 | +14% | 16.5 |  |  |  |  |  |  |  |  |
